The record followed here is patent US10287305B2, “Substituted piperidine compound and use thereof” (Takeda Pharmaceutical Company Limited, priority 2016, dated 2019).

Molecules are shown by their SMILES.

Assay [1] concerns the target human orexin type 2 receptor (hOX2R) (Homo sapiens (Human), UniProt O43614). Put plainly: Measurement of orexin type 2 receptor agonist activity (Experimental Example 2-1, FLIPR TETRA, intracellular Ca2+). It is filed as cell-based. The following applies: CHO dhfr- cells expressing hOX2R; for Emax at 30 µM: value at 30 uM concentration, orexin B as full agonist = 100%.

In a further assay the test system is C57BL/6J mice. Put plainly: Measurement of locomotor activity in mice (Experimental Example 3). It is filed as in vivo, mouse. The following applies: male C57BL/6J mice; 30 mg/kg intraperitoneal; measured for 2 hr after administration. The procedure:
Increased locomotor activity is one of the indexes of arousal action together with increase in wakefulness time, increase in body temperature, enhancement of cardiovascular system parameters and the like. In this Experimental Example, the arousal action effective for the treatment of narcolepsy was evaluated by measuring the locomotor activity of mouse. Male C57BL/6J mice (6-10 weeks old, Japan CLEA) were used for the measurement of locomotor activity (8 mice each group), infrared rays were irradiated from the top part of the cage, and a locomotor activity measuring device (MDC system—Neurosciences Idea) capable of quantifying the number of times the mice pass through the irradiated rays was used. To be specific, the mice were placed in the cage of the device and acclimatized for 4 hours or longer, and a test compound was intraperitoneally administered (dose: 30 mg/kg body weight). The locomotor activity was measured for 2 hr after the administration. In the test compound group, a solution obtained by dissolving the test compound in a solvent (composition: 10% DMSO, 10% Cremophor EL (trade name), 20% polyethylene glycol 400 (20% PEG400, 60% H2O)) was administered to mice. On the other hand, in the control group, only the aforementioned solvent not containing the test compound was administered to mice.

For another assay, the target named is human OX2 receptor (Homo sapiens (Human), UniProt O43614). Put plainly: Measurement of orexin type 2 receptor agonist activity (Experimental Example 2-2, FDSS uCELL, calcium indicator). The following applies: CHO cells expressing human OX2 receptor; for EC50: Fluo-4 AM. The class given is cell-based. The method, then: CHO cells forcibly expressing human OX2 receptor were seeded in each well of 384 well black transparent bottom plate (BD Falcon) at 7,500 cells/well, and cultured for one day in a 5% CO2 incubator at 37° C. […] The plate was stood for 30 min in a 5% CO2 incubator at 37° C., and further stood at room temperature for 30 min. A test compound prepared by diluting with assay buffer B (HESS, 20 mM HEPES, 0.1% BSA) was added at 10 μL/well, and the fluorescence value was measured by FDSSμCELL (Hamamatsu Photonics K.K.) every one sec for 1 min, and thereafter every two sec for 1 min sec.

The mark [2] stands for this setting: agonist activity, 10 nM human orexin B = 100%.
The mark [3] stands for this setting: DMSO = 0%, reference OX-A at 10 nM.
[4] abbreviates: CHO, DMSO = 0%, reference OX-A at 10 nM.

Chain of human OX2 receptor (O43614 whole entry): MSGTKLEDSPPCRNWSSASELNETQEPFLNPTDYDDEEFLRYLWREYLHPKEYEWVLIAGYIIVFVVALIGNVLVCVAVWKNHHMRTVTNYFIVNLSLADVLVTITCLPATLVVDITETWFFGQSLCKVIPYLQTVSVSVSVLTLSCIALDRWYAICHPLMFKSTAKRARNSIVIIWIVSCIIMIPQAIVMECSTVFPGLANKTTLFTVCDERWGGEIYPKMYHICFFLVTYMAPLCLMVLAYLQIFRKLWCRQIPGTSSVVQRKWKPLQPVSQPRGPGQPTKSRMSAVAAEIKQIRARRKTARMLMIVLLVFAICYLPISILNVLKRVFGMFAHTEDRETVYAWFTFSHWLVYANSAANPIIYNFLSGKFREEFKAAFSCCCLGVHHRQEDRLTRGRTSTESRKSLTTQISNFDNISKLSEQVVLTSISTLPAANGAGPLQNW
Chain of human orexin type 2 receptor (hOX2R) (O43614 whole entry): as above

For orientation: EC50 means the concentration that produces a half-maximal response. In general, Emax refers to the greatest response seen or fitted, relative to the assay's reference. `COC(=O)N1CCC[C@H](NS(C)(=O)=O)[C@@H]1CO[C@H]1CC[C@@H](c2ccccc2)CC1` [Example 5, Methyl (2R,3S)-3-((methylsulfonyl)amino)-2-(((cis-4-phenylcyclohexyl)oxy)methyl)piperidine-1-carboxylate] gave a 50% effective concentration (EC50) in assay [1] (setting [2]) of 0.0022 µM. Also, the maximal effect (Emax) at 30 µM in assay [1] came to 98%. Also, the “locomotor activity (counts) (mean ± S.E.M., n = 8)” value in the assay on C57BL/6J mice was found to be 1175.25 counts.
For `CCNC(=O)N1CCC[C@H](NS(C)(=O)=O)[C@@H]1CO[C@H]1CC[C@@H](C(C)C)CC1` [Example 2, (2R,3S)—N-ethyl-2-(((cis-4-isopropylcyclohexyl)oxy)methyl)-3-((methylsulfonyl)amino)piperidine-1-carboxamide] the same measures were 0.0019 µM, 99% and 817.00 counts.
Turning to `COC(=O)N1CCC[C@H](NS(C)(=O)=O)[C@@H]1CO[C@H]1CC[C@@H](c2cccc(O)c2)CC1` (relative stereo) [Example 343, methyl cis-2-(((cis-4-(3-hydroxyphenyl)cyclohexyl)oxy)-methyl)-3-((methylsulfonyl)amino)piperidine-1-carboxylate], the Emax at human OX2 receptor (setting [3]) stood at 109%. Besides, at human OX2 receptor, the EC50 was 0.15 µM.
Consider `O=C(OCC(F)(F)F)N1CCC[C@H](NS(=O)(=O)C2CC2)[C@@H]1COC1CCN(c2ncccn2)CC1` (relative stereo) [Example 360, 2,2,2-trifluoroethyl cis-3-((cyclopropylsulfonyl)amino)-2-(((1-(pyrimidin-2-yl)piperidin-4-yl)oxy)methyl)piperidine-1-carboxylate], for which the EC50 at human OX2 receptor was 0.21 µM. In addition, the Emax on human OX2 receptor (setting [4]) amounted to 98%.
Regarding `COC(=O)N1CCC[C@H](NS(C)(=O)=O)[C@@H]1CO[C@H]1CC[C@@H](c2ccc(OC)cc2)CC1` (relative stereo) [Example 344, methyl cis-2-(((cis-4-(4-methoxyphenyl)cyclohexyl)oxy)-methyl)-3-((methylsulfonyl)amino)piperidine-1-carboxylate], the 50% effective concentration (EC50) at human OX2 receptor was determined as 0.29 µM. Moreover, the Emax on human OX2 receptor (setting [4]) amounted to 109%.
For `CC(OC(=O)N1CCC[C@H](NS(=O)(=O)C2CC2)[C@@H]1COC1CCN(c2ncccn2)CC1)C(F)(F)F` (relative stereo) [Example 362, 1,1,1-trifluoropropan-2-yl cis-3-((cyclopropylsulfonyl)amino)-2-(((1-(pyrimidin-2-yl)piperidin-4-yl)oxy)methyl)piperidine-1-carboxylate] the same measures were 0.39 µM and 95%.
The corresponding values for `COC(=O)N1CCC[C@H](NS(C)(=O)=O)[C@@H]1CO[C@H]1CC[C@@H](c2ccc(O)cc2)CC1` (relative stereo) [Example 345, methyl cis-2-(((cis-4-(4-hydroxyphenyl)cyclohexyl)oxy)-methyl)-3-((methylsulfonyl)amino)piperidine-1-carboxylate] are 0.021 µM and 105%.
For `CC(=O)N1CCC[C@H](NS(=O)(=O)C2CC2)[C@@H]1CO[C@H]1CC[C@@H](C(C)C)CC1` (relative stereo) [Example 357, N-(cis-1-acetyl-2-(((cis-4-isopropylcyclohexyl)oxy)methyl)-piperidin-3-yl)cyclopropanesulfonamide] the same measures were 0.084 µM and 101%.
As for `COC(=O)N1CCC[C@H](NS(C)(=O)=O)[C@@H]1CO[C@H]1CC[C@@H](c2ccc(O)cc2)CC1` [Example 348, methyl (2R,3S)-2-(((cis-4-(4-hydroxyphenyl)cyclohexyl)oxy)-methyl)-3-((methylsulfonyl)amino)piperidine-1-carboxylate], at human OX2 receptor (setting [3]), the “Emax (%)” value is on record as 92%. Also, the EC50 on human OX2 receptor was determined as 0.0095 µM.
`CS(=O)(=O)N[C@H]1CCCN(C(=O)CO)[C@H]1CO[C@H]1CC[C@@H](c2c(F)ccc(F)c2F)CC1` [Example 340, N-((2R,3S)-1-glycoloyl-2-(((cis-4-(2,3,6-trifluorophenyl)cyclohexyl)oxy)methyl)piperidin-3-yl)methanesulfonamide] displayed a concentration giving a half-maximal response (EC50) in assay [1] (FLIPR TETRA, Fluo-4AM) of 0.0025 µM. For the same molecule, the Emax in assay [1] (FLIPR TETRA, Fluo-4AM, read-out: Emax (%)) was determined as 109%. For the same molecule, the “locomotor activity (counts) (mean ± S.E.M., n = 8)” value with C57BL/6J mice stood at 979.25 ± 109.96 counts.
For the molecule `CCNC(=O)N1CCC[C@H](NS(=O)(=O)C2CC2)[C@@H]1CO[C@H]1CC[C@@H](c2ccccc2)CC1` (relative stereo) [Example 355, cis-3-((cyclopropylsulfonyl)amino)-N-ethyl-2-(((cis-4-phenylcyclohexyl)oxy)methyl)-piperidine-1-carboxamide], the EC50 on human OX2 receptor worked out at 0.00044 µM. For the same molecule, the Emax on human OX2 receptor (setting [4]) is 108%.
